Laboratory results taken from patent US20110229415A1, “SEMI-SYNTHETIC ANTIBODIES AS RECOGNITION ELEMENTS” (priority 2007, published 2011).
pKd: −log10 of the molar value.

Key:
Type in all cases: binding
mAb against Osteonectin = assay: Labeling of mAb against Osteonectin with radioactive probes
Protocol: 2N3ATP versus [γ^32P] 8N3ATP. Lanes A and D have […] have 10 μL, and C and F have 15 μL of the labeled antibody. [γ^32P] 2N3ATP labels the antibody better than [γ^32P] 8N3ATP.

[1] = tested on: Mouse anti-Human IL-6 monoclonal antibody; assay: Selecting the photoaffinity probe: photolabeling of antibody with radioactive nucleotide probes, SDS PAGE/autoradiography; conditions: IL-6 antibody, 300 μM of each probe, pH 4.0
Protocol: Selecting the photoaffinity probe. Two radioactive nucleotide probes, [γ-^32P]8-N3ATP and [γ-^32P]2-N3ATP were tested towards their reactivity with Mouse anti-Human IL-6 monoclonal antibody. For the labeling procedure 8 μg antibody was incubated with 300 μM of each probe in two different tubes in a final volume of 62 μl for 10 min on ice. The buffer used was 100 mM BTP at pH 4.0. After 10 min incubation the two tubes were photolyzed with a hand held UV lamp at 254 nm for 2 min and the reaction mixture was agitated in between to prevent local heating. The reaction was quenched by adding 12 μl of loading dye, PSM (5×) and heating it in a water bath for 5 min. The reaction products were then analyzed by SDS PAGE. ^32P incorporation was detected by autoradiography.

[2] = tested on: Mouse anti-Human IL-6 monoclonal antibody; assay: Saturation of labeling of antibody with photoreactive probe; conditions: 2 μg antibody, increasing probe concentrations, photolysis at 254 nm
Protocol: Saturation of labeling. 2 μg of Mouse anti-Human IL-6 monoclonal antibody was incubated with increasing concentrations of [γ-^32P]2-N3ATP for 20 min on ice and photolyzed with a hand held lamp at 254 nm for 1 min 15 sec. The reaction was quenched by adding 5 μl of 0.25 mg/ml cysteine and analyzed by SDS/PAGE and autoradiography.

[3] = biological target: mouse anti-human IL-6 antibody; assay: Determination of KD by competitive labeling with 2-N3ATP [γ 32P] and 2-N3ATP-fluorophore; conditions: competition with 30 μM 2-N3ATP [γ 32P], 2 μg antibody, photolysis; read-out: apparent KD
Protocol: Determination of KD of the monoclonal antibody for 2-N3ATP-fluorophore. Competitive labeling of the mouse anti-human IL-6 antibody with 2-N3ATP [γ ^32P] and 2-N3ATP-fluorophore was done. 30 μM 2-N3ATP [γ ^32P] and 2 μg of the antibody was added to each 10 μM, 20 μM, 40 μM, 60 μM, 80 μM, 100 μM and 120 μM of 2-N3ATP-fluorophore tube and incubated for 20 min on ice. The tubes were then photolyzed for 1 min 15 s. The reaction was quenched by adding 5 μl of 0.25 mg/ml cysteine and analyzed by SDS/PAGE and autoradiography.

Molecule | labeling of the antibody, compared with the 8-azido probe (mAb against Osteonectin) | labeling of the antibody, compared with the 8-azido probe [1] | saturation of photolabeling (probe concentration) [2] | pKd [3]
[N-]=[N+]=Nc1nc(N)c2ncn([C@@H]3O[C@H](COP(=O)(O)OP(=O)(O)O[32P](=O)(O)O)[C@@H](O)[C@H]3O)c2n1 [[γ-^32P]-2-N3ATP] | better than [γ^32P] 8N3ATP | better than [γ-^32P]-8-N3ATP | ~25 ΞM | –
2-N3ATP-Alexa Fluor 594 cadaverine | – | – | – | ~4.77
[N-]=[N+]=Nc1nc(N)c2ncn([C@@H]3O[C@H](COP(=O)(O)OP(=O)(O)OP(=O)(O)O)[C@@H](O)[C@H]3O)c2n1 [2-N3ATP, 2-azido ATP] | greater efficiency as compared to 8-azido ATP | greater efficiency as compared to 8-N3ATP | – | –
